Patent US11952593B2, “Detection and treatment of daughter number variations in cancer cells” (PharmacoGenetics Limited, priority 2020, dated 2024)

Key:
[1] = test system: HeLa cervical adenocarcinoma cells; assay: Time-lapse microscopy count of multi-daughter divisions (DNV frequency), HeLa; assay type: cell-based, human; conditions: wogonin 50 μM, 5-FU 20 μM
Protocol: (§1) To investigate DNVs, the human HepG2 hepatocellular carcinoma, HeLa cervical adenocarcinoma, and A549 lung adenocarcinoma cell lines, as well as the non-cancerous RPE1 line of hTRET-immortalized retina epithelial cells, were obtained from the American Type Culture Collection (ATCC, Manassas, Va., USA) and cultivated in Dulbecco's Modified Eagle Medium (DMEM) supplemented with 10% fetal bovine serum (Gemini Bio-Products, Sacramento. Calif.) under a humidified atmosphere of 5% C02 at 37° C. After 24 hours, the old medium was replaced by acidic DMEM growth medium buffered by 15 mM 2-(N-morpholino)-ethanesulfonic acid.HCl (MES) at pH 6.4, neutral DMEM growth medium buffered by 15 mM 3-(N-morpholino)propanesulfonic acid.HCl (MOPS) at pH 7.4, alkaline growth medium buffered by 15 mM tris(hydroxymethyl)aminomethane.HCl (Tris) at pH 8.4, or neutral DMEM growth medium containing wogonin (50 μM) or 5-FU (20 μM). Using phase contrast microscopy, time-lapse photographs were recorded at different positions of the wells at 15-minute intervals for 24 hours using the Nikon ECLIPSE Ti Live Cell Imaging Observatory, enabling the count of P1 through P8 patterns at the end of Stage 2 of the DNV process (FIG. 1). All the images were photographed at 100× magnification. Altemately, using fluorescence microscopy, the cells were seeded into 12 well plates at 1×10^3 per well and stained with Hoechst 33342 ([…], Thermofisher) for 30 minutes in an incubator at 37° C. After 30 minutes, culture medium was replaced by various treatment media and placed under the Nikon ECLIPSE Ti Live Cell Imaging Observatory for 24 hours. For the HeLa, HepG2 and A549 cells, the various treatments were also extended to 5 days. Because the RPE1 cells yielded no DNVs after 24 hours of drug treatment, its treatment periods were not extended beyond 24 hours. All the cells were manually traced and quantified using the ImageJ software. DNV frequencies were estimated by dividing the total number of multi-daughter ([…]) divisions by the total number of cell divisions. Fluorescence staining and time-lapse microscopy were employed to differentiate between the bi-, tri-, tetra- and penta-daughter cell divisions, and to estimate the percentages of the P1 through P8 patterns in the final daughter cells generated by each of the DNV events. GraphPad Prism 5.0 software was employed for statistical analysis, and the results were presented as the mean. Significance was determined using the Student t-test (two-tailed, unpaired/unequal variances).

[2] = test system: non-cancerous RPE1 retina epithelial cells; assay: Time-lapse microscopy count of multi-daughter divisions (DNV frequency), RPE1; assay type: cell-based; conditions: RPE1, 24 hours; wogonin 50 μM, 5-FU 20 μM
Protocol: as §1

A549 cells = assay: Daughter-cell subgroups P1 through P8 in mitoses with DNV, A549; assay type: cell-based, human; conditions: A549, 24 hours, wogonin 50 μM, 5-FU 20 μM
Text: “Daughter Number Variation” is a process that occurs during mitosis, where more than two daughter cells are produced per mitotic division. It is a two-stage process, wherein cell divisions of mono-nucleate, bi-nucleate, tri-nucleate and tetra-nucleate mother cells at Stage 1 produce subgroups of single mono-nucleate cells (herein referred to as P1), and subgroups containing one bi-nucleate cell and two mono-nucleate cells (herein referred to as P2). Stage 1 is followed by Stage 2, during which time some of the daughter cells from Stage 1 fuse to produce multi-nucleate cell subgroups, where the different subgroups differ with respect to the number of constituent cells and their nucleate status (herein referred to as P3 through P8). All the subgroups from a single DNV mitosis stay close to one another to form a distinct cluster when the cell culture is not overly dense with cells.
P1 subgroup cells are daughter mono-nucleate cells resulting from mitoses with DNV that have not undergone any post-mitotic cell fusion. P2 subgroup daughter cells are clusters of one bi-nucleate cell and two mono-nucleate cells, which also have not undergone any post-mitotic cell fusion during DNV, whereas each of the multi-nucleated subgroups contains at least one cell that is generated from post-mitotic fusions between the Stage 1 cells. P3 through P8 are daughter cell subgroups, which result from cell fusions during DNV, and wherein each subgroup includes at least one multinucleate cell.
By way of example and not of limitation, there is at least one multinucleate cell with two nuclei in P3 and P5, one multinucleate cell with three nuclei in P4 and P6, one multinucleate cell with four nuclei in P7, and one multinucleate cell with five nuclei in P8, sharing the same cytoplasm. More specifically, P3 cell subgroups are clusters of one multinucleate cell with two nuclei and one mononucleate cell, P4 cell subgroups are one multinucleate cell with three nuclei, P5 cell subgroups are clusters of either two multinucleate cells with two nuclei or one multinucleate cell with two nuclei and one binucleate cell, P6 cell subgroups are clusters of one multinucleate cell with three nuclei and one mononucleate cell, P7 cell subgroups are one multinucleate cell with four nuclei, and P8 cell subgroups are one multinucleate cell with five nuclei. P1 through P8 cell subgroups are depicted in detail in FIG. 2.
The counts of P1 and P2 subgroups of cancer cells are then used to obtain their proportions based on the total number of cell subgroups P1 through P8 that resulted from mitotic DNVs during the predetermined period of time. The proportions are typically expressed as percentages. The proportion of P1 subgroup of cells is calculated as (number of P1 subgroups)+(total number of daughter cell subgroups)×100%, and the proportion of (P1 and P2) subgroup is calculated as (number of P1 subgroups+number of P2 subgroups)+(total number of daughter cell subgroups)×100%. This can also be expressed as (number of P1 subgroups)+(total number of P1 through P8 subgroups)×100%, or (number of P1 subgroups+number of P2 subgroups)+(total number of P1 through P8 subgroups)×100%, respectively.
To investigate DNVs, the human HepG2 hepatocellular carcinoma, HeLa cervical adenocarcinoma, and A549 lung adenocarcinoma cell lines, as well as the non-cancerous RPE1 line of hTRET-immortalized retina epithelial cells, were obtained from the American Type Culture Collection (ATCC, Manassas, Va., USA) and cultivated in Dulbecco's Modified Eagle Medium (DMEM) supplemented with 10% fetal bovine serum (Gemini Bio-Products, Sacramento. Calif.) under a humidified atmosphere of 5% C02 at 37° C. […]

SMILES: O=c1[nH]cc(F)c(=O)[nH]1 [5-FU, 5-flurouracil]
- Bi-daughter divisions, % of total divisions ([1]; 24 hours): 99.0%
- Bi-daughter divisions, number ([1]; 24 hours): 3264
- Sum of Multi daughter Divisions, % of total mitotic divisions ([1]; 24 hours): 0.97%
- Sum of Multi daughter Divisions, number ([1]; 24 hours): 32
- Tetra-daughter divisions, % of total divisions ([1]; 24 hours): 0.09%
- Tetra-daughter divisions, number ([1]; 24 hours): 3
- Total number of observed divisions ([1]; 24 hours): 3296 (100)
- Tri-daughter divisions, % of total divisions ([1]; 24 hours): 0.88%
- Tri-daughter divisions, number ([1]; 24 hours): 29
- ≥Tetra-daughter divisions, number ([1]; 24 hours): 0
- Bi-daughter divisions, % of total divisions ([1]; 5 days): 91.8%
- Bi-daughter divisions, number ([1]; 5 days): 143
- Sum of Multi-daughter Divisions, % of total mitotic divisions ([1]; 5 days): 8.3%
- Sum of Multi-daughter Divisions, number ([1]; 5 days): 13
- Tetra-daughter divisions, number ([1]; 5 days): 0
- Total Divisions ([1]; 5 days): 156 (100)
- Tri-daughter divisions, % of total divisions ([1]; 5 days): 8.3%
- Tri-daughter divisions, number ([1]; 5 days): 13
- ≥Tetra-daughter divisions, number ([1]; 5 days): 0
- Bi-daughter divisions, % of total divisions [2]: 100%
- Bi-daughter divisions, number [2]: 15
- Sum of Multi-daughter Divisions, number [2]: 0
- Total number of observed divisions [2]: 15
- Tri-daughter divisions, number [2]: 0
- Mitoses with DNV, number (A549 cells): 3
- P1 + P2 subgroups, number (A549 cells): 3
- P1 subgroups, number (A549 cells): 3
- P2 subgroups, number (A549 cells): 0
- P3 subgroups, number (A549 cells): 0
- P4 subgroups, number (A549 cells): 0
- P5 subgroups, number (A549 cells): 0
- P6 subgroups, number (A549 cells): 0
- P7 subgroups, number (A549 cells): 0
- P8 subgroups, number (A549 cells): 0

SMILES: COc1c(O)cc(O)c2c(=O)cc(-c3ccccc3)oc12 [Wogonin, wogonin]
- Bi-daughter divisions, % of total divisions ([1]; 24 hours): 98.3%
- Bi-daughter divisions, number ([1]; 24 hours): 3041
- Sum of Multi daughter Divisions, % of total mitotic divisions ([1]; 24 hours): 1.70%
- Sum of Multi daughter Divisions, number ([1]; 24 hours): 53
- Tetra-daughter divisions, % of total divisions ([1]; 24 hours): 0.19%
- Tetra-daughter divisions, number ([1]; 24 hours): 6
- Total number of observed divisions ([1]; 24 hours): 3094 (100)
- Tri-daughter divisions, % of total divisions ([1]; 24 hours): 1.54%
- Tri-daughter divisions, number ([1]; 24 hours): 47
- ≥Tetra-daughter divisions, number ([1]; 24 hours): 0
- Bi-daughter divisions, % of total divisions ([1]; 5 days): 84%
- Bi-daughter divisions, number ([1]; 5 days): 205
- Sum of Multi-daughter Divisions, % of total mitotic divisions ([1]; 5 days): 16.3%
- Sum of Multi-daughter Divisions, number ([1]; 5 days): 40
- Tetra-daughter divisions, % of total divisions ([1]; 5 days): 2.4%
- Tetra-daughter divisions, number ([1]; 5 days): 6
- Total Divisions ([1]; 5 days): 245 (100)
- Tri-daughter divisions, % of total divisions ([1]; 5 days): 13.0%
- Tri-daughter divisions, number ([1]; 5 days): 32
- ≥Tetra-daughter divisions, % of total divisions ([1]; 5 days): 0.8%
- ≥Tetra-daughter divisions, number ([1]; 5 days): 2
- Bi-daughter divisions, % of total divisions [2]: 100%
- Bi-daughter divisions, number [2]: 106
- Sum of Multi-daughter Divisions, number [2]: 0
- Total number of observed divisions [2]: 106
- Tri-daughter divisions, number [2]: 0
- Mitoses with DNV, number (A549 cells): 7
- P1 + P2 subgroups, % of all P1 through P8 subgroups (A549 cells): (57.1) %
- P1 + P2 subgroups, number (A549 cells): 4
- P1 subgroups, % of all P1 through P8 subgroups (A549 cells): (57.1) %
- P1 subgroups, number (A549 cells): 4
- P2 subgroups, number (A549 cells): 0
- P3 subgroups, % of all P1 through P8 subgroups (A549 cells): (42.8) %
- P3 subgroups, number (A549 cells): 3
- P4 subgroups, number (A549 cells): 0
- P5 subgroups, number (A549 cells): 0
- P6 subgroups, number (A549 cells): 0
- P7 subgroups, number (A549 cells): 0
- P8 subgroups, number (A549 cells): 0
- P1 + P2 subgroups, % of all P1 through P8 subgroups (A549 cells; listed as wogonin): 57.1%
- P1 subgroups, % of all P1 through P8 subgroups (A549 cells; listed as wogonin): 57.1%
